Test results taken from article PMC5943252, “Contrasting roles for actin in the cellular uptake of cell penetrating peptide conjugates” (Scientific Reports, 2018).

Assays:
Type in all cases: cell-based
[1] = system: A431 cells; experiment: Flow cytometry of cellular uptake of EGFP-R8 in the presence of actin inhibitors; conditions: for Normalised Fluoresence Intensity (EGFP-R8): mean of geometric means, three independent experiments
Method: A431 cells were seeded onto 12-well plates and cultured for 24 hr to be ~80% confluent on the day of experiment. Cells were washed twice with PBS and then incubated with diluent control (DMSO/dH2O) or actin inhibitors as previously described. They were then loaded with serum-free DMEM containing either 2 µM EGFP-R8, 5 µg/ml TF-647 or 0.1 mg/ml Dex-647 in the presence or absence of actin inhibitors for times stipulated in the figure legends. The plates were then placed on ice to prevent further uptake and washed 3x with either ice-cold PBS or 0.5 mg/ml heparin in PBS. To remove the plasma membrane bound TF, cells were washed 3x with ice-cold PBS followed by an incubation for 1 min in ice-cold acid wash (0.2 M acetic acid, 0.2 M NaCl, pH 2.0)[33]. All cells were then washed twice with PBS at room temperature before trypsinisation at 37 °C for 5 min before placing the detached cells in centrifuge tubes and centrifuging at 4 °C for 3 min at 800 × g. The obtained cell suspension was washed 3x with ice-cold PBS and finally resuspended in 300 µl ice-cold PBS for measurement of cell-associated fluorescence (cell gate 50,000 cells) by flow cytometry on a BD FACSVerse utilising a 488 laser and 527/32 filter for EGFP analysis and a 633 nm laser and 660/10 filter for Alexa 647. Cells were gated using FSC-A/SSC-A to isolate single cell populations and analysed using FlowJo.
Flow cytometry measurements represent the mean fluorescence from three independent experiments performed in duplicate, where each individual data point was the geometric mean. A two-tailed unpaired Students t-test was used to test for differences within experiments. Significant differences were classed as having a P value of < 0.05.

[2] = system: A431 cells; experiment: Live cell confocal microscopy of uptake of endocytic probes and R8 conjugates, with or without actin inhibitors
Method: HeLa or A431 cells were seeded on 35 mm MatTek dishes (Ashland, US) at respective densities of 5 × 10^5 cells/dish and 1.0 × 10^6 cells/dish and maintained in 2.5 mL D-MEM containing 10%, 100 IU/mL penicillin and 100 µg/mL streptomycin. Cells were then allowed to adhere for 24 hr at 37 °C/5% CO2 to reach a confluence of ~80%. On the day of experimentation, they were washed with PBS and then incubated with 100 µl serum-free D-MEM (thus reducing well described serum binding effects[32]) containing either 2 µM CPP conjugate (R8-Alexa488 or EGFP-R8), 5 µg/ml transferrin-Alexa 647 (TF-647) or 0.1 mg/ml dextran (10 kDa)-Alexa 647 (Dex-647). The cells were then incubated for 1 hr (or 30 min for TF-647) at 37 °C/5% CO2 before washing 3x with PBS (TF-647 or Dex-647) or PBS 0.5 mg/mL heparin (R8-conjugates). They were then washed once with PBS, prior to the addition of 2 mL of imaging medium (phenol red free RPMI, 20 mM HEPES pH 7.4) and analysis by live cell confocal microscopy.
Cells were seeded on MatTek dishes as previously described and were washed with PBS before preincubation at 37 °C with diluent control (DMSO) or actin inhibitors: 10 µM Cyt D for 15 min; 0.1–1 µM Lat B for 30 min; 0.2–4 µM JAS for 45 min; 50–100 µM Y27632 for 4 hr in serum-free D-MEM at 37 °C/5% CO2. Endocytic probes (TF-647, Dex-647) or R8-conjugates were then incubated with the cells in the absence (control) or presence of the inhibitors and further incubated at 37 °C/5% CO2 for times specified in figure legends prior to analysis by confocal microscopy. For pulse chase experiments, A431 cells were incubated with 0.1 mg/ml Dex-647 for 2 hr (pulse) followed by washing and a further 4 hr (chase) in fresh complete growth medium. EGFP-R8 (2 µM) was then added for 1 hr in the absence or presence of 10 µM Cyt D. EGFP-R8 and Dex-647 subcellular distribution was then analysed in live cells using confocal microscopy. For low temperature experiments, cells were preincubated with Cyt D as above and then placed on ice for 2 min prior to addition of ice cold EGFP-R8. The cells were then maintained under these conditions for 1 hr prior to analysis by confocal microscopy.
Analysis was performed on a Leica SP5 confocal laser scanning microscope, equipped with laser lines: 405 Blue Diode (Excitation wavelength 405 nm for Hoechst 33342) Argon (Excitation wavelength 488 nm for Alexa 488 or EGFP), Helium Neon Laser 1 (Excitation wavelength 543 nm for Tetramethyl-Rhodamine Phalloidin (Rh-P)) and Laser 2 (Excitation wavelength 633 nm for Alexa 647 conjugates). All images presented in this study were obtained using a HCX PL APO 63x 1.4 NA oil immersion objective with Leica Type F immersion oil. Parameters “Gain” and “Off-set” of the individual photomultiplier tubes were adjusted between experiments in order to obtain optimal image acquisition avoiding saturation. For multi-channel image acquisition, the channels were scanned in a sequential recording mode to avoid spectral cross-talk caused by overlapping excitation and/or emission spectra of fluorophores. Acquisition mode “XYZ” and image resolutions (pixels/image) of 512 × 512 or 1024 × 1024 were selected and pinhole size was set to 1 Airy Unit. Depending on acquisition requirements the scan speed was set as either 400 or 700 Hz and for single section images, the same optical section was scanned 3x to generate a line average image. Captured images were then analysed using ImageJ. […]

[3] = system: actin architecture in A431 cells; experiment: Actin cytoskeleton visualisation (Rh-P staining, confocal microscopy); conditions: A431 cells, Rh-P staining; for effect on actin cytoskeleton: 30 min
Method: Analysis was performed on a Leica SP5 confocal laser scanning microscope, equipped with laser lines: 405 Blue Diode (Excitation wavelength 405 nm for Hoechst 33342) Argon (Excitation wavelength 488 nm for Alexa 488 or EGFP), Helium Neon Laser 1 (Excitation wavelength 543 nm for Tetramethyl-Rhodamine Phalloidin (Rh-P)) and Laser 2 (Excitation wavelength 633 nm for Alexa 647 conjugates). All images presented in this study were obtained using a HCX PL APO 63x 1.4 NA oil immersion objective with Leica Type F immersion oil. Parameters “Gain” and “Off-set” of the individual photomultiplier tubes were adjusted between experiments in order to obtain optimal image acquisition avoiding saturation. For multi-channel image acquisition, the channels were scanned in a sequential recording mode to avoid spectral cross-talk caused by overlapping excitation and/or emission spectra of fluorophores. Acquisition mode “XYZ” and image resolutions (pixels/image) of 512 × 512 or 1024 × 1024 were selected and pinhole size was set to 1 Airy Unit. Depending on acquisition requirements the scan speed was set as either 400 or 700 Hz and for single section images, the same optical section was scanned 3x to generate a line average image. Captured images were then analysed using ImageJ. In some cases (live cell imaging) the same cells were also imaged using […] microscopy (DIC).
A recently described method was utilised giving information on actin architecture at different regions of the cells termed basal and cell body and apex (CBA). For actin staining, HeLa (0.5 × 10^6 cells/well) or A431 (1.0 × 10^6 cells/well) cells in 2.5 mL D-MEM containing 10% FBS were seeded on round borosilicate No.1.5 cover slips in 6 –well plates and allowed to adhere for 24 hr at 37 °C/5% CO2, to reach a confluence of ~80%. The cells were then treated with actin disrupters as described above, washed 3x with PBS and fixed for 15 min at room temperature with 3% PFA in PBS. Cells were then washed 3x with PBS and permeabilised with 0.2% Triton X-100 in PBS at room temperature for 5 min, washed 3x with PBS and stained for cell nuclei with 1.0 µg/ml Hoechst 33342 in PBS and for polymerised actin with 1.0 µg/ml Rh-P in PBS for 15 min at room temperature. The cells were finally washed 3x with PBS and once with distilled water, coverslips were mounted in DAKO mounting medium on glass microscope slides and imaged by confocal microscopy.

[4] = 0.5 µM Lat B, 30 min preincubation, then 2 µM EGFP-R8 for 1 hr with Lat B

| SMILES | Normalised Fluoresence Intensity (EGFP-R8) ([1]; 4 µM JAS, 45 min preincubation, then 2 µM EGFP-R8 for 1 hr with JAS) | fold increase in fluorescence (EGFP-R8 uptake) ([1]; 4 µM JAS, 45 min preincubation, then 2 µM EGFP-R8 for 1 hr with JAS, vs diluent control (0.4% v/v DMSO), P = 0.0025) | effect on EGFP-R8 uptake ([2]; 2–4 µM JAS, 45 min preincubation, then 2 µM EGFP-R8 for 1 hr with JAS) | effect on actin organisation ([3]; 0.2 µM JAS, 45 min, basal and CBA regions) | effect on actin organisation ([3]; 2 µM JAS, 45 min) | effect on actin organisation (actin staining) ([3]; 4 µM JAS, 45 min) | fold increase in uptake (EGFP-R8) ([1]; 0.5 µM Lat B, 30 min preincubation, then 2 µM EGFP-R8 for 1 hr with Lat B, heparin wash, vs diluent control, P = 0.0045) [fold] | Normalised Fluoresence Intensity (EGFP-R8) [1, 4] | effect on cell associated EGFP-R8 fluorescence [2, 4] | effect on actin cytoskeleton ([3]; 0.1 μM Lat B, basal and CBA sections) | effect on actin cytoskeleton ([3]; 0.5 μM Lat B) | effect on actin cytoskeleton ([3]; 1 μM Lat B) |
| --- | --- | --- | --- | --- | --- | --- | --- | --- | --- | --- | --- | --- |
| C/C1=C\[C@H](C)C[C@H](C)OC(=O)C[C@H](c2ccc(O)cc2)NC(=O)[C@@H](Cc2c(Br)[nH]c3ccccc23)N(C)C(=O)[C@H](C)NC(=O)[C@@H](C)C1 [JAS, Jasplakinolide] | 4.00 | four | dramatic increase | actin staining was more prominent on the cell periphery | actin staining appeared in large clumps | completely lost from all cells | – | – | – | – | – | – |
| C/C1=C/C(=O)O[C@@H]2C[C@@H](CC[C@H](C)/C=C\CC1)O[C@@](O)([C@@H]1CSC(=O)N1)C2 [Lat B, Latrunculin B] | – | – | – | – | – | – | 6.23 | 6.23 | much higher fluorescence compared to controls | formation of small actin aggregates | these aggregates were extremely prominent | major disruption of the actin organisation |
